Source: BindingDB's records for doi:10.1021/jm901710h (Nerviano Medical Sciences, 2010)
pIC50: −log10 of the molar value.

Biological target: 3-phosphoinositide-dependent protein kinase 1, PDPK1 (Homo sapiens) (UniProt O15530)
Assay: Inhibition of PDK1

3-phosphoinositide-dependent protein kinase 1, PDPK1 (Homo sapiens), sequence (O15530 whole entry, looked up): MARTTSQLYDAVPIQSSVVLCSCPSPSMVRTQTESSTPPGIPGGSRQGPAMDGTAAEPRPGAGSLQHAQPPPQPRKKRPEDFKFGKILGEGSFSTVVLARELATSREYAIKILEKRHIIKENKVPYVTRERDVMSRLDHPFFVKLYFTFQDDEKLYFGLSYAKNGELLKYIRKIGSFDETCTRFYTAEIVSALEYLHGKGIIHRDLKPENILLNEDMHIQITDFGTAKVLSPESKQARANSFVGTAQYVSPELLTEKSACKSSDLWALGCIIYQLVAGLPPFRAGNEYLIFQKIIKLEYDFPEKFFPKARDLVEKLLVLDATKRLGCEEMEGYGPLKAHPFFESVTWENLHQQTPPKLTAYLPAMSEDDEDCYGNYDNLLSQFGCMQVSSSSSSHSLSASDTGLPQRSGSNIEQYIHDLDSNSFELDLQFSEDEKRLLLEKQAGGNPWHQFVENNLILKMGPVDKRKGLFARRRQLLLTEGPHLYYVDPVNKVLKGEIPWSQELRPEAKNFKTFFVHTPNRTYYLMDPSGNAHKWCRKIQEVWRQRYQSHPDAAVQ

pIC50 | Compound
< 5.00 | Cn1nc(C(N)=O)c2c1-c1nc(NC3CCN(C(=O)c4ccccc4)CC3)ncc1CC2 [1-Methyl-8-{[1-(phenylcarbonyl)piperidin-4-yl]amino}-4,5-dihydro-1H-pyrazolo[4,3-h]quinazoline-3-carboxamide]
< 5.00 | CC(=O)N1CCC(Nc2ncc3c(n2)-c2c(c(C(N)=O)nn2C)CC3)CC1 [8-[(1-Acetylpiperidin-4-yl)amino]-1-methyl-4,5-dihydro-1H-pyrazolo[4,3-h]quinazoline-3-carboxamide]
